# Test results as given in paper PMC4251536 (Journal of Natural Products, 2014).
# How the values were obtained:
# [1] = system: voltage-gated sodium channels (VGSCs); format: cell-based, mouse; details: veratridine-stimulated Na+ influx, murine cerebrocortical neurons
# [2] = system: human lung adenocarcinoma cells; details: cited from earlier work
# [3] = system: sodium ion channel in Neuro-2a cells; details: read-out: IC50, sodium ion channel blocking activity (veratridine-induced sodium influx), natural product; cited from earlier work
SMILES,fold more potent than the other analogues tested [1],cytotoxicity (in words) [2],IC50 [3] [µM]
"C[C@@H]1CCCC(=O)N(C)CCCC[C@@H](C)C(=O)O[C@@H](C(C)(C)C)C1 [compound 5, 17,18-Dihydropalmyrolide A]",3–9 fold,–,–
"C[C@@H]1CCCC(=O)N(C)/C=C/CC[C@@H](C)C(=O)O[C@@H](C(C)(C)C)C1 [compound 1, (−)-palmyrolide A]",3–9 fold,no appreciable cytotoxicity,5.2
"C[C@H]1CCCC(=O)N(C)/C=C/CC[C@H](C)C(=O)O[C@H](C(C)(C)C)C1 [compound 3, (+)-palmyrolide A]",3–9 fold,–,–
